Reference: the supplement of paper PMC10627819

Legend:
[1] = test system: B. subtilis 168; test: Bliss interaction score (quartile over a dose matrix) (fitness difference); higher = more antagonism (negative = synergy)
Summary of the method: (§1)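 At entry into stationary phase, OD595 was recorded and divided by the robust mean of the no-drug wells on that plate, with any value above 1 set to 1. This gives the fitness measure used throughout. Single-drug fitness was inferred from combination data, and the Bliss score, observed minus product-expected fitness, is shown as quartiles across technical, biological and donor/recipient replicates.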

[2] = test system: S. pneumoniae D39V; test: as above
Summary of the method: as §1

[3] = test system: S. aureus Newman; test: as above
Summary of the method: as §1

[4] = test system: S. aureus DSM 20231; test: as above
Summary of the method: as §1

[5] = test system: B. subtilis 168; test: fitness (endpoint OD595 vs no drug) (fraction); higher = more growth
Summary of the method: (§2)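 Background-subtracted growth curves were the basis for fitness, taken as the optical density at entry into stationary phase over the robust mean of no-drug control wells. A cap of 1 was applied. The curves came from OD595 readings every 30 min for 14 h at 37 °C, in 384-well plates seeded at OD595 0.01 with 30 µl, or 55 µl for S. pneumoniae.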

[6] = test system: S. aureus DSM 20231; test: as above
Summary of the method: as §2

[7] = test system: S. pneumoniae D39V; test: as above; conditions: main component drawn
Summary of the method: as §2

[8] = test system: S. aureus Newman; test: as above; conditions: main component drawn
Summary of the method: as §2
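Throughout, for Bliss interaction score (quartile over a dose matrix): first quartile when negative (synergy) and third quartile when positive (antagonism).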

CC[C@H]1OC(=O)[C@H](C)[C@@H](O[C@H]2C[C@@](C)(OC)[C@@H](O)[C@H](C)O2)[C@H](C)[C@@H](O[C@@H]2O[C@H](C)C[C@H](N(C)C)[C@H]2O)[C@](C)(O)C[C@@H](C)CN(C)[C@H](C)[C@@H](O)[C@]1(C)O [Azithromycin] + CC(=O)NC[C@H]1CN(c2ccc(N3CCOCC3)c(F)c2)C(=O)O1 [Linezolid]
Conditions | Bliss interaction score
[1] | -0.0849
[2] | -0.0318
[3] | -0.0582
[4] | -0.0673

fitness
Conditions | first compound 0.125 µg/mL | first compound 0.25 µg/mL | first compound 0.5 µg/mL | first compound 1 µg/mL
[5], partner 0.25 µg/mL | – | – | 0.106 | –
[5], partner 0.5 µg/mL | – | 0.0659 | 0.0597 | 0.0407
[6], partner 0.125 µg/mL | 0.768 | 0.744 | – | –
[6], partner 0.25 µg/mL | 0.608 | 0.557 | 0.191 | –
[6], partner 0.5 µg/mL | – | 0.151 | 0.0625 | –

one replicate
Conditions | fitness
[5], first compound 0.5 µg/mL, partner 0.0625 µg/mL | 0.759
[5], first compound 1 µg/mL, partner 0.0625 µg/mL | 0.287
[5], first compound 2 µg/mL, partner 0.0625 µg/mL | 0.023
[5], first compound 2 µg/mL, partner 0.125 µg/mL | 0
[5], first compound 2 µg/mL, partner 0.25 µg/mL | 0.029
[6], first compound 0.125 µg/mL, partner 1 µg/mL | 0.0489
[6], first compound 0.25 µg/mL, partner 1 µg/mL | 0.0402
[6], first compound 0.5 µg/mL, partner 1 µg/mL | 0.0193

CC[C@H]1OC(=O)[C@H](C)[C@@H](O[C@H]2C[C@@](C)(OC)[C@@H](O)[C@H](C)O2)[C@H](C)[C@@H](O[C@@H]2O[C@H](C)C[C@H](N(C)C)[C@H]2O)[C@](C)(O)C[C@@H](C)CN(C)[C@H](C)[C@@H](O)[C@]1(C)O [Azithromycin] + CCC[C@@H]1C[C@@H](C(=O)N[C@@H]([C@H]2O[C@H](SC)[C@H](O)[C@@H](O)[C@H]2O)[C@@H](C)O)N(C)C1 [Lincomycin]
Conditions | Bliss interaction score
[1] | 0.098
[2] | 0.0603
[3] | -0.105
[4] | -0.0854

fitness
Conditions | partner 0.1 µg/mL | partner 0.2 µg/mL | partner 0.4 µg/mL | partner 0.8 µg/mL | partner 1.6 µg/mL
[5], first compound 0.25 µg/mL | 0.777 | 0.78 | 0.833 | 0.865 | 0.887
[5], first compound 0.5 µg/mL | 0.82 | 0.817 | 0.876 | 0.797 | 0.77
[5], first compound 1 µg/mL | 0.714 | 0.734 | – | – | –
[6], first compound 0.125 µg/mL | 0.873 | 0.754 | – | – | –
[6], first compound 0.25 µg/mL | 0.89 | 0.583 | – | – | –
[6], first compound 0.5 µg/mL | 0.386 | 0.147 | 0.106 | – | –

[5], first compound 2 µg/mL, one replicate
Conditions | fitness
partner 0.1 µg/mL | 0.401
partner 0.2 µg/mL | 0.24
partner 0.4 µg/mL | 0.202

CC[C@H]1OC(=O)[C@H](C)[C@@H](O[C@H]2C[C@@](C)(OC)[C@@H](O)[C@H](C)O2)[C@H](C)[C@@H](O[C@@H]2O[C@H](C)C[C@H](N(C)C)[C@H]2O)[C@](C)(O)C[C@@H](C)CN(C)[C@H](C)[C@@H](O)[C@]1(C)O [Azithromycin] + COc1cc(Cc2cnc(N)nc2N)cc(OC)c1OC [Trimethoprim]
Conditions | Bliss interaction score
[1] | -0.194
[2] | -0.0811
[3] | 0.175
[4] | 0.171

fitness
Conditions | partner 0.125 µg/mL | partner 0.25 µg/mL | partner 0.5 µg/mL | partner 1 µg/mL
[5], first compound 0.25 µg/mL | 0.669 | 0.541 | 0.452 | –
[5], first compound 0.5 µg/mL | 0.471 | – | – | –
[5], first compound 2 µg/mL | – | 0.0144 | 0.0327 | –
[6], first compound 0.125 µg/mL | 0.789 | 0.64 | 0.538 | 0.0427
[6], first compound 0.25 µg/mL | 0.782 | 0.658 | 0.562 | 0.03
[6], first compound 0.5 µg/mL | 0.38 | – | 0.292 | 0.0131

fitness, [5], one replicate
Conditions | partner 0.1 µg/mL | partner 0.125 µg/mL | partner 0.2 µg/mL | partner 0.4 µg/mL | partner 1 µg/mL | partner 2 µg/mL
first compound 0.25 µg/mL | – | – | – | – | 0.106 | 0.0698
first compound 0.5 µg/mL | 0.365 | – | 0.257 | 0.111 | 0.051 | 0.0526
first compound 1 µg/mL | 0.144 | – | 0.0549 | 0.0194 | 0.0321 | 0.0311
first compound 2 µg/mL | 0.0143 | 0.0446 | 0.0451 | 0.0182 | – | –

CNC(C)C1CCC(N)C(OC2C(N)CC(N)C(OC3OCC(C)(O)C(NC)C3O)C2O)O1 (stereo not given) [Gentamicin] + C[n+]1ccc(-c2cc[n+](C)cc2)cc1 [Paraquat]
main component drawn
Conditions | Bliss interaction score
[1] | -0.0978
[2] | 0.0553
[3] | 0.0489
[4] | 0.109

fitness
Conditions | partner 1.25 µg/mL | partner 2.5 µg/mL | partner 5 µg/mL
[5], first compound 0.0625 µg/mL, main component drawn | 0.865 | 0.864 | –
[5], first compound 0.25 µg/mL, main component drawn | 0.203 | 0.0485 | 0.0561
[8], first compound 0.375 µg/mL, one replicate | 0.919 | 0.951 | 0.952
[8], first compound 0.75 µg/mL, one replicate | 0.918 | 0.937 | 0.9
[8], first compound 1.5 µg/mL, one replicate | 0.949 | 0.98 | 0.976

fitness
Conditions | first compound 0.5 µg/mL | first compound 1 µg/mL | first compound 2 µg/mL | first compound 4 µg/mL | first compound 8 µg/mL
[7], partner 1.5 µg/mL | – | – | 0.982 | ≥ 1 | 0.993
[7], partner 3 µg/mL | – | – | 0.99 | 0.971 | 0.902
[7], partner 6 µg/mL | – | – | 0.931 | 0.932 | 0.935
[8], partner 1.25 µg/mL | 0.957 | 0.981 | ≥ 1 | – | –
[8], partner 2.5 µg/mL | 0.953 | ≥ 1 | ≥ 1 | – | –
[8], partner 5 µg/mL | 0.928 | 0.992 | 0.963 | – | –

CNC(C)C1CCC(N)C(OC2C(N)CC(N)C(OC3OCC(C)(O)C(NC)C3O)C2O)O1 (stereo not given) [Gentamicin] + Cc1cc(NS(=O)(=O)c2ccc(N)cc2)no1 [Sulfamethoxazol]
main component drawn
Conditions | Bliss interaction score
[1] | 0.128
[2] | 0.0873
[3] | -0.0274
[4] | 0.0736

[5], partner 0.5 µg/mL, one replicate, main component drawn
Conditions | fitness
first compound 0.0625 µg/mL | 0.848
first compound 0.125 µg/mL | 0.975
first compound 0.25 µg/mL | 0.864

fitness
Conditions | partner 1 µg/mL | partner 2 µg/mL | partner 4 µg/mL | partner 8 µg/mL
[5], first compound 0.0625 µg/mL, main component drawn | 0.904 | 0.902 | 0.906 | –
[5], first compound 0.25 µg/mL, main component drawn | – | – | 0.0278 | –
[8], first compound 0.375 µg/mL, one replicate | ≥ 1 | 0.979 | ≥ 1 | –
[8], first compound 0.75 µg/mL, one replicate | 0.974 | 0.926 | ≥ 1 | –
[8], first compound 1 µg/mL, one replicate | – | – | – | ≥ 1
[8], first compound 1.5 µg/mL, one replicate | ≥ 1 | 0.975 | 0.981 | –
[8], first compound 2 µg/mL, one replicate | – | – | – | 0.975
[8], first compound 4 µg/mL, one replicate | – | 0.899 | 0.691 | 0.852

fitness
Conditions | first compound 0.5 µg/mL | first compound 1 µg/mL | first compound 2 µg/mL | first compound 4 µg/mL | first compound 8 µg/mL
[7], partner 1 µg/mL | – | – | 0.942 | 0.973 | 0.978
[7], partner 2 µg/mL | – | – | 0.942 | 0.977 | 0.968
[7], partner 4 µg/mL | – | – | 0.962 | 0.967 | 0.951
[8], partner 1 µg/mL | 0.948 | ≥ 1 | 0.98 | – | –
[8], partner 2 µg/mL | 0.936 | ≥ 1 | 0.986 | – | –
[8], partner 4 µg/mL | 0.981 | 0.999 | 1 | – | –
